Where “and” joins values, the source holds several entries; their conditions need not be identical. Equal entries are not always repeated.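 Compound exposure: 48 hours, 5 concentrations, 96-well plates. GI50 = concentration required for 50% inhibition of growth. TGI is the concentration that stops growth completely.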 Residues, ends and D or L forms follow the SMILES beside them. *: point of attachment. Cbz = O=C(OCc1ccccc1)*
System: MDA-MB-468 breast
Test: NCI-60 cell line screen, 48 h

| Structure (SMILES) | GI50 | TGI |
| --- | --- | --- |
| Oc1ccccc1/C=N\NC(=S)N/N=C/c1ccccc1O | 2240 nM | 30500 nM |
| O=S(=O)(NCCCNc1cc(-c2cn(-c3ccccc3)nc2-c2cccc(O)c2)ccn1)c1ccc(Br)cc1 | 1540 nM | 5610 nM |
| CC1Cc2ccccc2N1C(=O)Cc1nc(N2CCOCC2)cc(=O)[nH]1 (centres undefined) | 2060 nM and 5780 nM | 17100 nM and 47500 nM |
| O=c1oc2ccc(Br)cc2c(=O)n1-c1ccc(Cl)cc1F | 1380 nM | 5190 nM |
| COc1cc(/C=C/C(=O)c2c(-c3ccc(F)cc3)nc3sc(C)nn23)cc(OC)c1OC | 1920 nM | 7740 nM |
| CCNCCNc1cc(-c2ccc(C(F)(F)F)cc2)c(C#N)c2nc3cc(Cl)c(Cl)cc3n12 | 1830 nM | 3390 nM |
| C=CC(=O)Nc1cccc(Oc2nc(Nc3ccc(N4CCN(C)CC4)cc3OC)ncc2Cl)c1 | 113 nM | 518 nM |
| NC(=O)n1c(=O)n(-c2cccc(C(F)(F)F)c2)c(=O)c2cc(-c3ccc(F)cc3F)ccc21 | 1840 nM | 5830 nM |
| Cc1ccc(OCCOCCOCCOCCOCCOc2ccc(C)n(O)c2=S)c(=S)n1O | 36.8 nM | 412 nM |
| C=CCOC(=O)Nc1cccn([C@H](CC(C)C)C(=O)NCCC(C)C)c1=O | 42400 nM | > 100000 nM |
| O=[N+]([O-])c1ccc2c(c1)C(c1ccccc1Cl)=Nc1c(n[nH]c1-c1cccnc1)N2 | > 25000 nM | > 25000 nM |
| Cn1c(=O)c(Oc2ccc(F)cc2F)cc2cnc(NC3CCOCC3)nc21 | > 25000 nM | > 25000 nM |
| NC(=O)c1cc(Br)ccc1NC(=O)/C=C/c1ccccc1 | 837 nM | 4320 nM |
| NC(N)=Nc1ccc(/C=C2\C=Cc3ccccc32)cc1 | 148 nM | 969 nM |
| O=C1NC(=NCCc2ccccn2)S/C1=C\c1ccc2ncccc2c1 | 5770 nM | > 25000 nM |
| CCCCCCCCCCCCCCCCN(CC)CC | 2210 nM | 4550 nM |
| C=C1C(=O)O[C@H]2[C@H]1CC/C(CNC(=O)/C=C/c1ccccc1F)=C\CC[C@@]1(C)O[C@@H]21 | 493 nM | 1960 nM |
| CN(C)CCS(=O)(=O)Nc1cc(-c2ccc3ncc(C#N)c(Nc4ccc(F)c(Cl)c4)c3c2)cnc1Cl | 58.3 nM | 233 nM |
| Cn1cc(C2=C(c3cn(CCCCCO)c4ccccc34)C(=O)NC2=O)c2ccccc21 | 3470 nM | 14100 nM |
| COc1cc(C2CC(=O)Nc3c2c(C)nn3-c2nc3ccccc3[nH]2)cc(OC)c1O (centres undefined) | 2370 nM | 7090 nM |
| CNC(=O)c1cccc(C#Cc2cncnc2Nc2ccc(OCc3cccc(F)c3)c(Cl)c2)c1 | 616 nM | 4050 nM |
| COc1ccc(Cn2cc3c(c2-c2cc(OC)c(OC)c(OC)c2)CCc2c(CO)noc2-3)cc1 | 307 nM | 18900 nM |
| NCCSC(c1ccccc1)(c1ccccc1)c1ccccc1 | 357 nM | 1630 nM |
| CN(C)Cc1c(C(=O)NCCOc2ccc(C(=O)NO)cc2)oc2ccccc12 | 152 nM | 2360 nM |
| CC(C)C[C@@H](C=O)NC(=O)[C@H](CC(C)C)NC(=O)[C@H](CC(C)C)NC(=O)OCc1ccccc1 (Cbz-Leu-Leu-Leu-aldehyde) | 249 nM | 663 nM |
| Cc1sc2c(c1C)C(c1ccc(Cl)cc1)=N[C@@H](CC(=O)NCCCN1CCN(C)CC1)c1nnc(C)n1-2 | 197 nM | > 100000 nM |

| Structure (SMILES) | GI50 | TGI |
| --- | --- | --- |
| COc1cc2nc3cc([N+](=O)[O-])ccc3c(NCCNCC(C)O)c2cc1OC (centres undefined) | 203 nM | 542 nM |
| CN(C)C=Nc1c(I)cc(I)c(CCC(=O)O)c1I | > 100000 nM | > 100000 nM |
| O=C(O)c1cn(C2CC2)c2cc(N3CCN(Cc4c(O)ccc5ccccc45)CC3)c(F)cc2c1=O | 15200 nM | > 100000 nM |
| C=CC(=O)N1CC[C@H](n2nc(C#Cc3cc(OC)cc(OC)c3)c3c(N)ncnc32)C1 | 3330 nM | 78500 nM |
| CC(C)Cc1ccc(C(C)C(=O)NCc2ccc(Cn3c(=O)sn(CCCI)c3=O)cc2)cc1 (centres undefined) | 423 nM | 1620 nM |
| CC(=O)N[C@@H](Cc1ccc(OP(=O)(O)O)cc1)C(=O)N[C@H]1CCC(=O)N2CCC[C@@H](C(=O)NCc3ccccc3)N2C1=O | > 25000 nM | > 25000 nM |
| Cc1cccc(Cl)c1NC(=O)c1cnc(Nc2cc(N3CCOCC3)cc(S(C)(=O)=O)c2)s1 | 1470 nM | 8030 nM |
| CN(C)CCOc1ccccc1NC1=C(Cl)C(=O)C(Nc2ccccc2OCCN(C)C)=C(Cl)C1=O | 579 nM | 1170 nM |
| Cc1ccsc1-c1ccc2c(c1)COC2(CCCN(C)C)c1ccc(F)cc1 (centres undefined) | 1580 nM | 3060 nM |
| O=C1CC(N2C(=O)/C(=C/C(Cl)=C\c3ccc([N+](=O)[O-])cc3)SC2=S)C(=O)N1c1ccc(O)cc1 (centres undefined) | 1870 nM | 5700 nM |
| Cc1[nH]nc2ncc(C(=O)N3CCC[C@H]3c3ccc(Cl)cc3)cc12 | 33300 nM | > 100000 nM |
| COC(=O)CNc1nc(N(C)O)nc(N(C)O)n1 | 2160 nM | 17400 nM |
| C=C1CC2C3C=C(C)C4=CC(=O)CC[C@]4(C)C3CC[C@]2(C)[C@@]1(OC(C)=O)C(C)=O (some centres undefined) | 3230 nM | > 100000 nM |
| Cc1ccccc1C(C(=O)NC1CCCCC1)N(C(=O)CNc1ncccc1F)c1cccc(F)c1 (centres undefined) | > 65600 nM | > 100000 nM |
| COc1ccc(-c2[nH]nc(N)c2-c2cc(OC)c(OC)c(OC)c2)cc1 | 36.8 nM | 6230 nM |
| COc1ccc2c(c1)C(c1cc(OC)c3c(c1)OCO3)C1=C(COC1=O)N2 (centres undefined) | 205 nM | 849 nM |
| C[C@H]1CCC/C=C/[C@@H]2C[C@H](O)C[C@H]2[C@H](O)/C=C/C(=O)O1 | 31.2 nM | 268 nM |
| Cc1ccccc1C(C(=O)NC1CCCCC1)N(C(=O)CNc1ccc(C#N)cc1)c1cccc(F)c1 (centres undefined) | 25700 nM | > 100000 nM |
| Nc1ncn([C@H]2C[C@H](OP(=O)(O)OC[C@H]3O[C@@H](n4cnc5c(=O)[nH]c(N)nc54)C[C@@H]3O)[C@@H](CO)O2)c(=O)n1 | 154 nM | 67900 nM |
| CC/C=C\C[C@H](O)C/C=C1/C(=O)C=C[C@@H]1C/C=C\CCCCO | 1970 nM | 4650 nM |
| CCCN(CCC)c1ccc(C=O)c(C)c1 | 1980 nM | 32500 nM |
| O=C1c2c(Cl)c(Cl)c(Cl)c(Cl)c2C(=O)C2(Cl)CC=CCC12Cl (centres undefined) | 1210 nM | 2880 nM |
| CN1CCN(Cc2ccc(NC(=O)c3cncc(C#Cc4cnc5ccc(OC6CCOCC6)nn45)c3)cc2C(F)(F)F)CC1 | 105 nM | 278 nM |
| N#CC1=C(N)Oc2c(sc3c(Br)cccc23)C1c1ccc(Cl)cc1 (centres undefined) | 521 nM | 3200 nM |
| COC(=O)[C@@H](C)C[C@H](Cc1ccccc1)NC(=O)c1csc([C@@H](C[C@H](C(C)C)N(C)C(=O)[C@@H](NC(=O)[C@H]2CCCN2C)C2CC2)OC(C)=O)n1 | 0.328 nM and 2.5 nM | > 25000 nM |
| Cc1[nH]c(C(=O)Nc2ccccc2OCc2cccc(C(=O)NC3CCNC3)c2)c(Cl)c1Cl (centres undefined) | 1890 nM | 3600 nM |
